Test results from patent US20250127788A1, “PHARMACEUTICAL COMPOSITION CONTAINING TRIAZINE DERIVATIVE” (Shionogi & Co., Ltd., priority 2021, published 2025).
pEC50, pIC50: −log10 of the molar value. Where two headings read alike, the source gives them in different places.

Assays:
[1] = system: SARS-CoV-2 hCoV19/Japan/TY11-927/2021 strain; type: in vivo, Syrian hamsters; conditions: 6 days after start
[2] = system: SARS-CoV Hanoi strain; experiment: microbe, parasite or virus in culture; conditions: Severe acute respiratory syndrome coronavirus, VeroE6/TMPRSS2, 72 h, read-out: EC50 (50% virus infected cell death inhibitory concentration)
[3] = system: SARS-CoV-2 Omicron Strain; experiment: Test Example 1-3: CPE suppression in Vero E6/TMPRSS2 cells, Omicron strains; type: cell-based
[4] = system: SARS-CoV-2 hCoV-19/Japan/TY38-873/2021; experiment: Test Example 10-2: CPE suppression in HEK293T/ACE2-TMPRSS2 cells (TY38-873); type: cell-based; conditions: Severe acute respiratory syndrome coronavirus 2, HEK-293T
[5] = system: HCoV-229E; experiment: Test Example 8: antiviral effect on HCoV-229E (MRC-5 cells, CellTiter-Glo); type: cell-based; conditions: Human coronavirus 229E, MRC5, read-out: EC50 (50% HCoV-229E infected cell death inhibitory concentration), 72 hours
Procedure: Test Example 8: Antiviral Effect on HCoV-229E
The test sample is preliminarily diluted with DMSO to an appropriate concentration, and a 3-fold serial dilution series is prepared and then dispensed into a 96-well plate and diluted in a maintenance medium (MEM, 2% FBS, penicillin-streptomycin).
MRC-5 cells (2×10^4 cells/well) suspended in a subculture medium (DMEM, 10% FBS, penicillin-streptomycin) are seeded in a 96-well plate a day before infection, and the next day, HCoV-229E (1000 TCID50/well) suspended in a maintenance medium (MEM, 2% FBS, penicillin-streptomycin) is infected for 1 hour. Thereafter, virus fluid is removed, a maintenance medium including a test reagent is added, and culturing is carried out in a CO2 incubator for 72 hours. Furthermore, in order to examine cytotoxicity of the test reagent, the same operation is performed in the absence of virus.
After returning the plate cultured for 72 hours to room temperature, CellTiter-Glo (registered trademark) 2.0 is dispensed into each well and mixed with a plate mixer. After a certain time interval, the luminescence signal (Lum) is measured with a plate reader.
When x is taken as the logarithmic value of the compound concentration and y as % Efficacy, the inhibition curve is approximated by the following Logistic regression equation, and the value of x when substituting 50(%) for y is calculated as EC50.
[formula] […]

[6] = system: SARS-CoV-2; experiment: microbe, parasite or virus in culture; type: cell-based; conditions: Severe acute respiratory syndrome coronavirus 2, HEK-293T; HEK293T/ACE2-TMPRSS2 cells; strains WK-521, QK002, TY7-501, TY8-612, TY11-927-P1
[7] = in vitro; conditions: human
[8] = system: HCoV-OC43; experiment: microbe, parasite or virus in culture; conditions: Betacoronavirus 1, OC43, MRC5, 42 h, read-out: EC90 (90% HCoV-OC43 viral replication inhibitory concentration)
[9] = system: SARS-CoV-2 hCoV19/Japan/TY11-927/2021 strain; type: in vivo, Syrian hamsters; conditions: 3 days after start of living together
[10] = system: SARS-CoV-2 hCoV-19/Japan/TY7-501/2021; experiment: Test Example 9: influence of human serum and mouse serum on anti-SARS-CoV-2 activity; type: cell-based; conditions: Severe acute respiratory syndrome coronavirus 2, serum 100% condition by linear regression
[11] = system: SARS-CoV-2 hCoV19/Japan/TY11-927/2021 strain; design: species or system Syrian hamsters; conditions: in vivo
[12] = target: SARS-CoV-2 3CL Protease WT (Severe acute respiratory syndrome coronavirus 2 (2019-nCoV) (SARS-CoV-2), UniProt P0DTD1); experiment: biochemical; conditions: read-out: EC50 (table head; method calculates IC50)
[13] = target: Recombinant SARS-CoV-2 3CL Protease (Severe acute respiratory syndrome coronavirus 2 (2019-nCoV) (SARS-CoV-2), UniProt P0DTD1); experiment: Test Example 2: inhibitory activity test against SARS-CoV-2 3CL protease; type: biochemical; conditions: class symbols
[14] = system: SARS-CoV-2; experiment: microbe, parasite or virus in culture; type: cell-based; conditions: Severe acute respiratory syndrome coronavirus 2, 72 h; VeroE6/TMPRSS2 cells, 3 days; class symbols

## Cn1cnc(Cn2c(=O)[nH]/c(=N\c3cc4cn(C)nc4cc3Cl)n(Cc3cc(F)c(F)cc3F)c2=O)n1
[1]; 30 mg/kg oral twice a day for six days
  lung virus titer of administered hamsters co-housed with infected hamster: 3.48 log10 PFU50/mL
[1]; 200 mg/kg oral twice a day for six days
  lung virus titer of administered hamsters co-housed with infected hamster: a detection limit value or less
[2]
  pEC50: 6.68
[3]; Severe acute respiratory syndrome coronavirus 2, VeroE6/TMPRSS2, Omicron TY38-871 (BA.1.1)
  pEC50: 6.44
[3]; Severe acute respiratory syndrome coronavirus 2, VeroE6/TMPRSS2, Omicron TY38-873 (BA.1)
  pEC50: 6.54
[3]; Severe acute respiratory syndrome coronavirus 2, VeroE6/TMPRSS2, Omicron TY40-385 (BA.2)
  pEC50: 6.28
[3]; Severe acute respiratory syndrome coronavirus 2, VeroE6/TMPRSS2, Omicron TY41-686 (XE)
  pEC50: 6.36
[3]; Severe acute respiratory syndrome coronavirus 2, VeroE6/TMPRSS2, Omicron TY41-702 (BA.5)
  pEC50: 6.40
[3]; Severe acute respiratory syndrome coronavirus 2, VeroE6/TMPRSS2, Omicron TY41-703 (BA.4)
  pEC50: 6.66
[3]; Severe acute respiratory syndrome coronavirus 2, VeroE6/TMPRSS2, Omicron TY41-716 (BA.2.75)
  pEC50: 6.52
[4]
  pEC50: 7.08
[5]
  pEC50: 5.26
[6]
  pEC50: 7.24 to 7.59
[7]
  CC50: > 200000 nM
[8]
  EC90: 74 nM
[9]
  intranasal concha virus titer of uninfected hamster co-housed with treated infected hamster: 2.89 log10 TCID50/mL
  lung virus titer of uninfected hamster co-housed with treated infected hamster: 2.97 log10 TCID50/mL
[10]; human serum, read-out: human serum PA-EC50 (protein-adjusted EC50)
  pEC50: 5.52
[10]; mouse serum, read-out: mouse serum PA-EC50 (protein-adjusted EC50)
  pEC50: 5.41
[11]
  lung virus titer of uninfected hamsters co-housed with treated infected hamster: the detection limit value or less

## Cc1cncc(-n2c(=O)nc(Nc3cc4cn(C)nc4cc3Cl)n(Cc3cc(F)c(F)c(F)c3)c2=O)c1
[12]
  pIC50: 7.78

## Cc1nc2cc(C)c(Nc3nc(=O)n(Cc4c[nH]cn4)c(=O)n3Cc3cc(F)c(F)c(F)c3)cc2s1 [Compound I-001]
[13]
  pIC50: 5.00 to 6.00

## Cc1cncc(-n2c(=O)nc(Nc3cc4cn(C)nc4cc3F)n(Cc3cc(F)c(F)c(F)c3)c2=O)c1 [Compound I-002]
[13]
  pIC50: > 7.00
[14]
  pEC50: > 6.00

## Cc1cncc(-n2c(=O)nc(Nc3cc4cn(C)nc4cc3C)n(Cc3cc(F)c(F)c(F)c3)c2=O)c1 [Compound I-004]
[13]
  pIC50: > 7.00
[14]
  pEC50: 5.00 to 6.00

## CC(=O)N1CC(n2cc3cc(Nc4nc(=O)n(-c5cncc6ccccc56)c(=O)n4Cc4cc(F)c(F)c(F)c4)c(Cl)cc3n2)C1 [Compound I-007]
[13]
  pIC50: > 7.00

## Cn1cc2cc(Nc3nc(=O)n(-c4cncc(CO)c4)c(=O)n3Cc3cc(F)c(F)c(F)c3)ccc2n1 [Compound I-008]
[13]
  pIC50: 6.00 to 7.00

## N#Cc1cc(Cn2c(Nc3ccc4nn(CC(F)F)cc4c3)nc(=O)n(-c3cncc4ccccc34)c2=O)ccc1F [Compound I-009]
[13]
  pIC50: > 7.00
[14]
  pEC50: > 6.00

## Cc1cncc(-n2c(=O)nc(Nc3ccc4nn(CC(F)F)cc4c3)n(Cc3ccc(F)c(C#N)c3)c2=O)c1 [Compound I-011]
[13]
  pIC50: > 7.00
[14]
  pEC50: > 6.00

## Cc1cc2nn(C)cc2cc1Nc1nc(=O)n(-c2cncc3ccccc23)c(=O)n1Cc1cc(F)c(F)c(F)c1 [Compound I-013]
[13]
  pIC50: > 7.00
[14]
  pEC50: 5.00 to 6.00

## Cn1cc2cc(Nc3nc(=O)n(-c4cncc5ccccc45)c(=O)n3Cc3cc(F)c(F)c(F)c3)c(Cl)cc2n1 [Compound I-014]
[13]
  pIC50: > 7.00
[14]
  pEC50: > 6.00

## Cn1cc2cc(Nc3nc(=O)n(-c4cncc5ccccc45)c(=O)n3Cc3ccc(F)c(C#N)c3)c(Cl)cc2n1 [Compound I-015]
[13]
  pIC50: > 7.00
[14]
  pEC50: > 6.00

## Cn1cc2cc(Nc3nc(=O)n(-c4cncc5ccccc45)c(=O)n3Cc3cc(F)c(F)c(F)c3)ccc2n1 [Compound I-016]
[13]
  pIC50: > 7.00
[14]
  pEC50: > 6.00

## Cc1cncc(-n2c(=O)nc(Nc3cc4cn(C)nc4cc3F)n(Cc3ccc(F)c(C#N)c3)c2=O)c1 [Compound I-018]
[13]
  pIC50: > 7.00
[14]
  pEC50: > 6.00

## Cc1cncc(-n2c(=O)nc(Nc3cc4cn(C)nc4cc3C)n(Cc3ccc(F)c(C#N)c3)c2=O)c1 [Compound I-019]
[13]
  pIC50: > 7.00
[14]
  pEC50: > 6.00

## O=c1nc(Nc2cc3cn(CCN4CCOCC4)nc3cc2Cl)n(Cc2cc(F)c(F)c(F)c2)c(=O)n1-c1cncc2ccccc12 [Compound I-020]
[13]
  pIC50: > 7.00
[14]
  pEC50: 5.00 to 6.00

## Cn1cnc(Cn2c(=O)nc(Nc3cc4cn(C)nc4cc3Cl)n(Cc3cc(F)c(F)c(F)c3)c2=O)n1 [Compound I-021]
[13]
  pIC50: > 7.00
[14]
  pEC50: > 6.00

## Cc1nc2cc(Cl)c(Nc3nc(=O)n(Cc4ncn(C)n4)c(=O)n3Cc3cc(F)c(F)c(F)c3)cc2n1C [Compound I-022]
[13]
  pIC50: > 7.00
[14]
  pEC50: 5.00 to 6.00

## N#Cc1cc(Cn2c(Nc3cc4cn(C(F)F)nc4cc3Cl)nc(=O)n(-c3cncc4ccccc34)c2=O)ccc1F [Compound I-024]
[13]
  pIC50: > 7.00
[14]
  pEC50: > 6.00

## Cn1cc2cc(Nc3nc(=O)n(-c4cncc5ccccc45)c(=O)n3Cc3ccc(F)c(C#N)c3)c(F)cc2n1 [Compound I-025]
[13]
  pIC50: > 7.00
[14]
  pEC50: > 6.00

## Cc1cncc(-n2c(=O)nc(Nc3cc4cn(C(F)F)nc4cc3Cl)n(Cc3ccc(F)c(C#N)c3)c2=O)c1 [Compound I-026]
[13]
  pIC50: > 7.00
[14]
  pEC50: > 6.00

## Cc1cc2nn(C)cc2cc1Nc1nc(=O)n(-c2cncc3ccccc23)c(=O)n1Cc1ccc(F)c(C#N)c1 [Compound I-027]
[13]
  pIC50: > 7.00
[14]
  pEC50: > 6.00

## Cn1cnc(Cn2c(=O)nc(Nc3cc4cn(CCO)nc4cc3Cl)n(Cc3cc(F)c(F)c(F)c3)c2=O)n1 [Compound I-028]
[13]
  pIC50: > 7.00
[14]
  pEC50: 5.00 to 6.00

## Cn1cnc(Cn2c(=O)nc(Nc3cc4cn(CC(F)F)nc4cc3Cl)n(Cc3cc(F)c(F)c(F)c3)c2=O)n1 [Compound I-029]
[13]
  pIC50: > 7.00
[14]
  pEC50: > 6.00

## Cn1cnc(Cn2c(=O)nc(Nc3cc4cn(C(F)F)nc4cc3Cl)n(Cc3cc(F)c(F)c(F)c3)c2=O)n1 [Compound I-030]
[13]
  pIC50: > 7.00
[14]
  pEC50: 5.00 to 6.00

## Cc1nc2cc(Cl)c(Nc3nc(=O)n(-c4cncc5ccccc45)c(=O)n3Cc3cc(F)c(F)c(F)c3)cc2n1C [Compound I-032]
[13]
  pIC50: > 7.00
[14]
  pEC50: 5.00 to 6.00

## CC(=O)NCCn1cc2cc(Nc3nc(=O)n(-c4cncc5ccccc45)c(=O)n3Cc3cc(F)c(F)c(F)c3)c(Cl)cc2n1 [Compound I-033]
[13]
  pIC50: > 7.00
[14]
  pEC50: 5.00 to 6.00

## O=c1nc(Nc2ccc3nn(CC(F)F)cc3c2)n(Cc2cc(F)c(F)c(F)c2)c(=O)n1-c1cncc2ccccc12 [Compound I-034]
[13]
  pIC50: > 7.00
[14]
  pEC50: > 6.00
